We go through eight compounds from patent US6849409B2, “Cellular kinases involved in Cytomegalovirus infection and their inhibition” (Axxima Pharmaceuticals AG, priority 2000, dated 2005).

In one experiment the test system is HCMV. The experiment is described as follows: HCMV inhibition (virus replication assay, plaque assay, GFP infection assay or indirect immunofluorescence analysis). It is filed as cell-based. The note with it: Human betaherpesvirus 5, read-out: IC50 HCMV. How it is done:
(§1) To perform initial tests for compounds that inhibit RICK activity in a cellular assay, RICK was transiently overexpressed in HEK-293 cells, immunoprecipitated and incubated with different concentrations of test compounds before in-vitro kinase assays were performed (Example 10). According to the method for identifying compounds useful for inhibiting the cellular kinase RICK and therefore useful for treating and/or preventing Cytomegalovirus infection and/or diseases associated with Cytomegalovirus infection, a test compound is contacted with the cellular kinase RICK according to the RICK assay protocol disclosed in example 10. The test compound dissolved in DMSO is added to the RICK assay solution at concentrations between 100 nM and 50 μM. Thereafter, radioactively labeled ATP is added and kinase activity of RICK is determined by detecting the autophosphorylation of RICK via radioactivity measurement. The five compounds listed in the following Table 1 were identified using said method. […] The IC50 values of HCMV inhibition were obtained by the use of at least one assay protocol selected from a) virus replication assay, b) plaque assay, c) GFP (Green Fluorescent Protein) infection assay, and d) indirect immunofluorescence analysis as disclosed in example 12. Thus, the five compounds A to E mentioned below and/or pharmaceutically acceptable salts thereof can be used as inhibitors of the cellular protein kinase RICK and as pharmaceutically active compounds for the treatment and/or prophylaxis of HCMV infection. Furthermore, these compounds are suitable for the manufacture of a pharmaceutical composition for prophylaxis and/or treatment of Cytomegalovirus infection and/or diseases associated therewith.
(§2) To perform initial tests for compounds that inhibit RIP activity in a cellular assay, RIP was transiently overexpressed in HEK-293 cells, immunoprecipitated and incubated with different concentrations of test compounds before in-vitro kinase assays were performed (Example 11). In order to identify compounds suitable for inhibiting the cellular kinase RIP and, thus, suitable for treating and/or preventing Cytomegalovirus infection and/or diseases associated with Cytomegalovirus infection the inventive method according to claim 1 was used. A test compound was contacted with the cellular kinase RIP according to the RIP assay protocoll disclosed in example 11. The test compound dissolved in DMSO is added to the RIP assay solution at concentrations between 100 nM and 50 μM. Radioactively labeled ATP was used as co-substrate of RIP and auto-phosphorylation was detected via measurement of incorporation of radioactivity into the RIP protein. Thereafter, phosphorylation rates with and without test compounds were compared. […] The IC50 values of HCMV inhibition were obtained by the use of at least one assay protocol selected from a) virus replication assay, b) plaque assay, c) GFP infection assay, and d) indirect immunofluorescence analysis as disclosed in example 12.
Primary human foreskin fibroblasts (HFF) were cultivated in MEM containing 5% (v/v) fetal calf serum. Infection analysis was restricted to cell passage numbers below twenty. Human cytomegalovirus strain AD169 (ATCC) was grown in HFF cells and quantitated for infectivity by the plaque reduction assay. Aliquots were stored at −80° C.
HFF cells were cultivated in 12-well plates to 90-100% confluency and used for infection with dilutions of virus-positive cell culture supernatants. Virus inoculation was performed for 90 min at 37° C. under occasional shaking before virus was removed and the cell layers were rinsed with PBS. Overlays of MEM 5% (v/v) fetal calf serum and 0.3% (w/v) agarose were added to each well and all samples were incubated at 37° C. in a 5% CO2 atmosphere for approximately 12 days. Finally, overlays were removed and the formation of foci was visualized by staining with 1% crystal violet in 20% ethanol for 1 min. […]

In a further experiment the target is T1, RICK (Homo sapiens, UniProt O43353).
T1 construct: made in house; host or cells: HEK 293 (transient transfection, pcDNA3), immunoprecipitated with anti-HA antibody
The experiment is described as follows: RICK-kinase assay (autophosphorylation of immunoprecipitated RICK-HA, radioactively labeled ATP). In kind it is biochemical. As to conditions: in-vitro kinase assay, compound 100 nM to 50 μM, 30 min at 30° C. How it is done:
as §1
To obtain active RICK kinase the human RICK-cDNA was fused with a DNA sequence coding for the HA-tag and cloned into the eucaryotic expression vector pcDNA3 (Invitrogene). This construct was transfected into human embryonic kidney cells (HEK 293) via the calcium-phosphate co-precipitation method. One day after transfection medium was replaced by fetal calf serurum-free medium and two days after transfection cells were washed with PBS and harvested and lysed in RIPA-buffer (150 mM NaCl, 1 mM EDTA, 1% Tritron X-100, 1% Na-desoxycholate, 0.1% SDS, 10 mM Tris-HCl pH 7.5). The RICK-HA fusion protein was immunoprecipitated from 250 μl cleared lysate (i.e. lysate of one well of a six-well plate) utilizing an anti-HA antibody from Roche Pharmaceuticals and Protein A sepharose. After addition of 500 μl of HNTG-buffer (50 mM HEPES pH 7.5, 150 mM NaCl, 1 mM EDTA, 10% glycerine, 0.1% Triton X-100) the sample was rotated for 3 hrs at 4° C. After washing the immunoprecipitate twice with 0.5 ml HNTG-buffer and twice with 0.5 ml assay-buffer (25 mM Tris-HCl pH 7.5, 3 mM MgCl2, 0.5 mM MnCl2, 0.5 mM DTT and 50 mM NaCl), the kinase reaction was performed directly on the beads in 40 μl assay buffer containing 2.5 μCi γ[^33P]-ATP and various concentrations (between 100 nM and 50 μM) of compounds of Table 1. After 30 min at 30° C., the reaction was stopped by addition of 40 μl 3×Laemmli-buffer (16% glycerol, 1.01M β-mercaptoethanol, 5% SDS, 200 mM Tris/HCl pH 6.8, 8% bromphenolblue). Phosphorylation products were analyzed by SDS-PAGE and auroradiography (x-ray film and phosphor imager).

Another experiment addresses T2, RIP (Homo sapiens, UniProt Q13546).
T2 construct: made in house; host or cells: HEK 293 (transient transfection, pcDNA3), immunoprecipitated with anti-HA antibody
T2 sequence (Q13546 1-671 A438V): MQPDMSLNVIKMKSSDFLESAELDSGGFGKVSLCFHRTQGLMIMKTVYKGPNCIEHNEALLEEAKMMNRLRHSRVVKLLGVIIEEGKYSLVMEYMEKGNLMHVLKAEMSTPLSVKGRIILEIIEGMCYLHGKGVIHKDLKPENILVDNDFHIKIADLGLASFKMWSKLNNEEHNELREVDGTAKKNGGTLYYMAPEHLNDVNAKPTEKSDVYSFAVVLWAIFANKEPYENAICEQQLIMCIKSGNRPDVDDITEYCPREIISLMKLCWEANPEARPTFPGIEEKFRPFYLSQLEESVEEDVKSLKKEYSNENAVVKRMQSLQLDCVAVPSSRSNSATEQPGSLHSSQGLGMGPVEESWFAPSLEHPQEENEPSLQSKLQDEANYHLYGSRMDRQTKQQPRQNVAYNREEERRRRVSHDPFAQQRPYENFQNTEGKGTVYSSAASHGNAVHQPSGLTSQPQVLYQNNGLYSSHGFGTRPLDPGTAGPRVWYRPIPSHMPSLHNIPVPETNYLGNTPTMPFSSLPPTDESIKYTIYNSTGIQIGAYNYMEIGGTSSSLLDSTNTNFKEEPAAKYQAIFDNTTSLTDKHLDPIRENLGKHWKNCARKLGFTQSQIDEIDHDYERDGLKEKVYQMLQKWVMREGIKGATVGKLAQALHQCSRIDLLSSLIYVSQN
The experiment is described as follows: RIP-kinase assay (autophosphorylation of immunoprecipitated RIP-HA, radioactively labeled ATP). In kind it is biochemical. The note with it: in-vitro kinase assay, compound 100 nM to 50 μM, 30 min at 30° C. How it is done: as §2
To obtain active RIP kinase the human RIP-cDNA was fused with a DNA sequence coding for the HA-tag and cloned into the eucaryotic expression vector pcDNA3 (Invitrogene). This construct was transfected into human embryonic kidney cells (HEK 293) via the calcium-phosphate DNA co-precipitation method. Two days after transfection cells were washed with PBS and harvested and lysed in lysis-buffer (150 mM NaCl, 1 mM EDTA, 1% Tritron X-100, 20 mM Tris-HCl pH 7.5 and freshly added: 30 mM NaF, 10 μg/ml Aprotinine, 10 μg/ml Leupeptine, 2 mM Na-pyrophosphate). […] Phosphorylation products were analyzed by SDS-PAGE and autoradiography (x-ray film and phosphor imager).

T1 sequence (O43353 whole entry): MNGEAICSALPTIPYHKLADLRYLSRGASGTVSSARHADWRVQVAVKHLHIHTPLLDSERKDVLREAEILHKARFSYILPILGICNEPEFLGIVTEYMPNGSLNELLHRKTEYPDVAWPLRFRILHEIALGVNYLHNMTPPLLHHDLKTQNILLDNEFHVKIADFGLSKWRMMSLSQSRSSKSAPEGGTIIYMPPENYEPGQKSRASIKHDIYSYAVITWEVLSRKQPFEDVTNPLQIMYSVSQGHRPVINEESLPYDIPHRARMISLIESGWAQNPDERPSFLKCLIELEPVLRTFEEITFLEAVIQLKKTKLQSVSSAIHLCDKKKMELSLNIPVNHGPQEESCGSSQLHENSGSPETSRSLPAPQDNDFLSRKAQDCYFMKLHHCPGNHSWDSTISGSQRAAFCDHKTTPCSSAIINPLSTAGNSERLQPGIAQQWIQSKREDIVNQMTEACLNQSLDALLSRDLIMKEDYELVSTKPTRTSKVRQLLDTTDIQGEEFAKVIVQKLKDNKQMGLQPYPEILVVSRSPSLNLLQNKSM

As a reminder, the IC50 is the concentration needed to halve the response being measured. On to `Cn1c(=O)c(-c2c(Cl)cccc2Cl)cc2cnc(NCCCN3CCOCC3)nc21` [Compound A, 6-(2,6-Dichlorophenyl)-8-methyl-2-(3-morpholin-4-yl-propylamino)-8H-pyrido[2,3-d]pyrimidin-7-one], for which the figures for the IC50 with HCMV and on RICK were 6.8 µM and 1 µM, respectively.
Take `O=C1NC(=O)c2ccccc2/C1=C/c1ccnc2ccccc12` [Compound H, 4-Quinolin-4-ylmethylene-4H-isoquinoline-1,3-dione]: the IC50 at RIP is 5 µM; in the experiment with HCMV, 12 µM.
The corresponding values for `O=c1c(O)c(-c2ccc(O)c(O)c2)oc2cc(O)cc(O)c12` [Compound F, 2-(3,4-Dihydroxyphenyl)-3,5,7-trihydroxychromen-4-one] are 5 µM and 15 µM.
As to `CCOc1cc2ncnc(Nc3cccc(Br)c3)c2cc1OCC` [Compound D, (3-Bromophenyl)-(6,7-diethoxyquinazolin-4-yl)-amine], the 50% inhibitory concentration (IC50) in the experiment with HCMV turned out to be 7.6 µM; on RICK it was 0.5 µM.
As to `Cn1c(=O)c(-c2ccccc2)cc2cnc(Nc3ccncc3)nc21` [Compound B, 8-methyl-6-phenyl-2-(pyridin-4-yl-amino)-8H-pyrido[2,3-d]pyrimidin-7-one], the IC50 was 1.4 µM in the experiment with HCMV and 0.5 µM at RICK.
For the compound `O=C1Nc2ccc(Cl)cc2/C1=C/c1ccc[nH]1` [Compound G, 5-Cloro-3-(1H-pyrrol-2-ylmethylene)-1,3-dihydroindol-2-one], the IC50 is 10 µM on RIP and 15 µM with HCMV.
`COc1cc2ncnc(Nc3cccc(Br)c3)c2cc1OC` [Compound E, (3-Bromophenyl)-(6,7-dimethoxyquinazolin-4-yl)-amine]: the half-inhibitory concentration (IC50) with HCMV was found to be 5.7 µM; at RICK it was 0.5 µM.
On the same counts, the results for `CN1CCN(CCCNc2ncc3cc(-c4c(Cl)cccc4Cl)c(=O)n(C)c3n2)CC1` [Compound C, 6-(2,6-Dichlorophenyl)-8-methyl-2-[3-(4-methylpiperazin-1-yl)-propylamino]-8H-pyrido[2,3-d]pyrimidin-7-one] are 6.2 µM and 1 µM.
